Laboratory results as given in article PMC3601065 (PLoS ONE, 2013).
Where no end group is shown, it is not given here.

Columns and labels:
HLA-A*0201 = HLA-A*0201 (Homo sapiens, UniProt P04439, D140Y/D185E/D98H/E176V/E277Q/G131W/G231S/I119V/I121R/I166T/I218V/L300P/L318F/N151K/N90K/P208A/P217A/Q86G/Q94H/R138H/R169H/T345S); assay: biochemical; type: binding

ILDAHSLYL [IL9]
IC50 (HLA-A*0201): 1.3 nM
cytotoxicity of peptide-specific CD8^+ T cells (T2 target cells): highly cytotoxic

VLSEWLPVT [VT9]
IC50 (HLA-A*0201): 15 nM
cytotoxicity of peptide-specific CD8^+ T cells (T2 target cells): highly cytotoxic
